# ChEMBL document CHEMBL1201862, “PubChem BioAssay data set” (2004)
# Active and inactive are the calls of the source.
# Columns and labels:
# [1] = target: T1, Small ubiquitin-related modifier 1 (Homo sapiens, UniProt P63165); experiment: inhibitors of SUMO1 partner interactions, dose response, biochemical, FRET (AID 624383); format: functional; settings: read-out: IC50_Mean
# [2] = target: T1, Small ubiquitin-related modifier 1; experiment: inhibitors of SUMO1 peptide binding, dose response, biochemical, fluorescence polarization, uHTS hits (AID 624382); format: functional; settings: read-out: IC50_Mean
# [3] = Luminescence Cell-Based Dose Retest to Confirm Inhibitors of Cancer Stem Cells. [Related pubchem assays (depositor defined):AID2717, AID2721]; format: functional; settings: Homo sapiens
# [4] = target: Photoreceptor-specific nuclear receptor (Homo sapiens, UniProt Q9Y5X4); format: functional, cell-based;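 further: CHO-S cells with Gal4-NCOR and VP16-NR2E3 two-hybrid luciferase reporter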
# [5] = MDA-MB-231 cell growth inhibition, dose response, cytotoxicity control for RAD54 inhibitor project, CellTiter-Glo luminescence, cherry-pick (AID 651692); format: functional, cell-based
# [6] = target: T2, DNA repair and recombination protein RAD54-like (Homo sapiens, UniProt Q92698); experiment: inhibitors of human RAD54 branch migration, confirmation, biochemical, fluorescence, cherry-picked samples, dose series (AID 651657); format: functional
# T2 sequence (Q92698 whole entry): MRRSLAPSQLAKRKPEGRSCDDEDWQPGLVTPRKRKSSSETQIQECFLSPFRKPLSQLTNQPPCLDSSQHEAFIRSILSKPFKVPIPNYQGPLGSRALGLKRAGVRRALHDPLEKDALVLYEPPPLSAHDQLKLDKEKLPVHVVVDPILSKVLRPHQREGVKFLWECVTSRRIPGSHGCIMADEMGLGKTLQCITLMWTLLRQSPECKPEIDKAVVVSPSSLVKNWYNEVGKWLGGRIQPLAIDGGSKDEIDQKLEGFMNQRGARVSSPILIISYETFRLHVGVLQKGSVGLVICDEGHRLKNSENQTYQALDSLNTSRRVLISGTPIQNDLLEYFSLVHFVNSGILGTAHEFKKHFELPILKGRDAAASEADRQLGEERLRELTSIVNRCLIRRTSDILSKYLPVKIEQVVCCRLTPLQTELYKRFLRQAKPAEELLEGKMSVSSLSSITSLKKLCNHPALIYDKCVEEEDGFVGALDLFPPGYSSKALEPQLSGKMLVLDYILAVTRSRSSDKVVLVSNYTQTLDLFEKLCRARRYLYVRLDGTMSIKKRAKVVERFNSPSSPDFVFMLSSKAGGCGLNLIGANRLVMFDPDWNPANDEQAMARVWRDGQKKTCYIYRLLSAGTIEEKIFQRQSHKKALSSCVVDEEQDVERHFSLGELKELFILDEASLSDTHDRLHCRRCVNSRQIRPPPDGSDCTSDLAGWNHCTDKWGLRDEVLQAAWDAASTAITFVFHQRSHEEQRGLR
# [7] = target: T3, DNA repair protein RAD52 homolog (Homo sapiens, UniProt P43351); format: functional, biochemical
# T3 sequence (P43351 whole entry): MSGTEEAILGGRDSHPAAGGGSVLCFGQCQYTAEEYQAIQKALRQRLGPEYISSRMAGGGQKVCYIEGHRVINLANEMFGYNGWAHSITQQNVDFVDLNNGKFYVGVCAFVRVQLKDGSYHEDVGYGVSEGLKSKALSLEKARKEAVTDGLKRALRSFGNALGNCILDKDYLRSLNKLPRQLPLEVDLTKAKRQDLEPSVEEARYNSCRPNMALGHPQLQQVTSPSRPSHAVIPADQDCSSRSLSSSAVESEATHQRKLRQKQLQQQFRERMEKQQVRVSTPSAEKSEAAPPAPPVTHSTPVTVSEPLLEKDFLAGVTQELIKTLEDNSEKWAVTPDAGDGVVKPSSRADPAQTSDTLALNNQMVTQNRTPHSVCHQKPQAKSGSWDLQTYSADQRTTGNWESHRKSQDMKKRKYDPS
# [8] = target: Hepatocyte nuclear factor 4-alpha (Homo sapiens, UniProt P41235); format: functional, cell-based;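 further: biochemical luminescence-based dose-response counterscreen measuring inhibition of HNF4 dimerization, run alongside a screen for blockers of ABHD5–perilipin-5 interaction; split luciferase complementation of HNF4 fusion proteins in cell lysate measuring dimerization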
# [9] = growth suppression of PTEN-null colon cells, dose response, cell-based, HCT116 PTEN knockout (AID 1047); format: functional;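 further: HCT116 colon tumor cells with PTEN knocked out; cells exposed to compound for 60 hours before readout; potency for loss of cell viability measured by luminescence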
# [10] = target: Intestinal-type alkaline phosphatase (Homo sapiens, UniProt P09923); experiment: inhibition of human intestinal alkaline phosphatase – biochemical, dose response (AID 488876); format: functional
# Cytochrome P450 1A2 = target: T4, Cytochrome P450 1A2 (Homo sapiens, UniProt P05177);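 further: PubChem cytochrome P450 panel assay, CYP1A2 panel member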
# T4 sequence (P05177 whole entry): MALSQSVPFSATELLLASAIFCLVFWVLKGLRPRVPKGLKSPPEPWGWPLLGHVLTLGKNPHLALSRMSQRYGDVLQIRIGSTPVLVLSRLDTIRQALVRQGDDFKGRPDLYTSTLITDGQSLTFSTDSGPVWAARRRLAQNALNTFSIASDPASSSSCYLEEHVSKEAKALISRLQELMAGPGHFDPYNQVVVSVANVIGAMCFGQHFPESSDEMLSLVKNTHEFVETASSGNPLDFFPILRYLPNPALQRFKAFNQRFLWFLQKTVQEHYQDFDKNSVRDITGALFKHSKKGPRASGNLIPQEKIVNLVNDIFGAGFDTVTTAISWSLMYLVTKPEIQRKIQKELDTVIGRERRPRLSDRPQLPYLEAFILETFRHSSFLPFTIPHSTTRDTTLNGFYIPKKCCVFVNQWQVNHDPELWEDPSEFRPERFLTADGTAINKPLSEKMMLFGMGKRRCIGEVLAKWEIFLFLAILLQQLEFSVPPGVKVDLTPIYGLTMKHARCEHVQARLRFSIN
# INS1 = experiment: beta cell apoptosis inhibitors, cytokine rescue, dose response, luminescence, retest (AID 449756); format: functional, cell-based; settings: Rattus norvegicus;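 further: cell death triggered by IL-1 beta plus TNF-alpha plus IFN-gamma mixture; protective hits raise ATP signal compared with cytokine alone wells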
# Cytochrome P450 2C9 = Cytochrome P450 2C9 (Homo sapiens, UniProt P11712)
# [11] = target: Intestinal-type alkaline phosphatase (Mus musculus, UniProt P24822); experiment: PubChem AID 488785; format: functional
# [12] = growth suppression of beta-catenin-knockout colon cells, dose response, cell-based, HCT116, human colon tumor (AID 1045); format: functional;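 further: HCT116 colon tumor cells with beta catenin knocked out; cells exposed to compound for 60 hours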
# [13] = target: T5, Alkaline phosphatase, tissue-nonspecific isozyme (Homo sapiens, UniProt P05186); experiment: TNAP enzyme inhibition by screening hits, dose response, selectivity assay for mouse IAP inhibitor project, biochemical, human TNAP, uHTS hits (AID 488906); format: functional
# T5 sequence (P05186 whole entry): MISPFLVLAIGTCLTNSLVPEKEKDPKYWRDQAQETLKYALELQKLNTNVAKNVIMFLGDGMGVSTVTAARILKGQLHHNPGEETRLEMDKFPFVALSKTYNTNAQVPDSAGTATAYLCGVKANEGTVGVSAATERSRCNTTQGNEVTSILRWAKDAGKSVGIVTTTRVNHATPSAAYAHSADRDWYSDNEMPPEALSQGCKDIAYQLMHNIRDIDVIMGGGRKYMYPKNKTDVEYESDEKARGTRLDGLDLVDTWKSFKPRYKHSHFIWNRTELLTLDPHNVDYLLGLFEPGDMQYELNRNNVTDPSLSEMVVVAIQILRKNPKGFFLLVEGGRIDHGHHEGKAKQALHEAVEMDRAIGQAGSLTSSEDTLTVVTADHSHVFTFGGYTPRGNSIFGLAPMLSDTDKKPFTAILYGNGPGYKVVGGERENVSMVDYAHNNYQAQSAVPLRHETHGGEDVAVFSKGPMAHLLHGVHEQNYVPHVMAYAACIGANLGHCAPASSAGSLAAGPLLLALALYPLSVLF
# [14] = target: Dual specificity protein phosphatase 3 (Homo sapiens, UniProt P51452); experiment: VHR phosphatase inhibition, dose response, selectivity assay for STEP inhibitor project, biochemical (AID 602374); format: functional; settings: read-out: IC50_Mean
# [15] = target: Tyrosine-protein phosphatase non-receptor type 11 (Homo sapiens, UniProt Q06124); experiment: SHP2 phosphatase inhibition, dose response, selectivity assay for STEP inhibitor project, biochemical (AID 602367); format: functional; settings: read-out: IC50_Mean
# [16] = target: Tyrosine-protein phosphatase non-receptor type 5 (Homo sapiens, UniProt P54829); experiment: STEP phosphatase inhibitors, confirmation, biochemical, fluorescence intensity, uHTS hits (AID 602372); format: functional; settings: read-out: IC50_Mean
# [17] = target: T6, Tyrosine-protein phosphatase non-receptor type 22 (Homo sapiens, UniProt Q9Y2R2); experiment: PTPN22 phosphatase inhibition, dose response, selectivity assay for STEP inhibitor project, biochemical (AID 624241); format: functional
# T6 sequence (Q9Y2R2 whole entry): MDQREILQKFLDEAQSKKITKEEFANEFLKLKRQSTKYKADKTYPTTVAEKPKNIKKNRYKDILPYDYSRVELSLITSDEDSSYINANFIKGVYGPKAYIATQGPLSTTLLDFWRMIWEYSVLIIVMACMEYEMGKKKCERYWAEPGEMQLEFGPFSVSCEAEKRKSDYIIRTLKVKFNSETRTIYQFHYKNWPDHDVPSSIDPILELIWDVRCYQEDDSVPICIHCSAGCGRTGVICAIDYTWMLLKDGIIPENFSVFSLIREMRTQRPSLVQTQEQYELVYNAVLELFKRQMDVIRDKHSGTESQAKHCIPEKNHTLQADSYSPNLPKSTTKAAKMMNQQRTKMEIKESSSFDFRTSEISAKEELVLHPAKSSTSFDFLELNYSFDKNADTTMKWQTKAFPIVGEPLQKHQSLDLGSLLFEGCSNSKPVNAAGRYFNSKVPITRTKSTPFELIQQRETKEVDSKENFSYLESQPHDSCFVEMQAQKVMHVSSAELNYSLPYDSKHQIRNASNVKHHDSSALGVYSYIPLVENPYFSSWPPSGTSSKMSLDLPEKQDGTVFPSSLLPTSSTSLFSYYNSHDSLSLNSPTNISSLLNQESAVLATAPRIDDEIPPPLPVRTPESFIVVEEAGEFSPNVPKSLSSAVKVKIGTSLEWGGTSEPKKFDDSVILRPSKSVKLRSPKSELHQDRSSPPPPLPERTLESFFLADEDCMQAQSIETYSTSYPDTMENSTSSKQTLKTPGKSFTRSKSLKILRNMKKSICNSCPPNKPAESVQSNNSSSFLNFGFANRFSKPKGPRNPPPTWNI
# T1 sequence (P63165 whole entry): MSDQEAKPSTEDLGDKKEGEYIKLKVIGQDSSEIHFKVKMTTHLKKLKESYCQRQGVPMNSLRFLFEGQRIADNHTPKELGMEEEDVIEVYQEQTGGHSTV
# Intestinal-type alkaline phosphatase (Homo sapiens, UniProt P09923), sequence (P09923 whole entry): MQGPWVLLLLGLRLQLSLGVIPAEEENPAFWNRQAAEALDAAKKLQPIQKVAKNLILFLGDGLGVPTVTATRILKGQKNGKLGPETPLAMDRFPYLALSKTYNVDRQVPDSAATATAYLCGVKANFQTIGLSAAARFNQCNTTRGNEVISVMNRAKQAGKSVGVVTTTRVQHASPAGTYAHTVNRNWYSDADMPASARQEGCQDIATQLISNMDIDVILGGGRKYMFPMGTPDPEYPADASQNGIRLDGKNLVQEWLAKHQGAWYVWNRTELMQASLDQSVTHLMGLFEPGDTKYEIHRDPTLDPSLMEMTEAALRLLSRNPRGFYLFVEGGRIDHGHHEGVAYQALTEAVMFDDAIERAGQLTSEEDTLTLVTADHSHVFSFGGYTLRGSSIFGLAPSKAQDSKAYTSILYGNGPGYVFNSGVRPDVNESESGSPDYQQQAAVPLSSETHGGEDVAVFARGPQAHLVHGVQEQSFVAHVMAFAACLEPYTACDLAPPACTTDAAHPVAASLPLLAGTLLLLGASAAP
# Hepatocyte nuclear factor 4-alpha, sequence (P41235 whole entry, the tested form may be a part): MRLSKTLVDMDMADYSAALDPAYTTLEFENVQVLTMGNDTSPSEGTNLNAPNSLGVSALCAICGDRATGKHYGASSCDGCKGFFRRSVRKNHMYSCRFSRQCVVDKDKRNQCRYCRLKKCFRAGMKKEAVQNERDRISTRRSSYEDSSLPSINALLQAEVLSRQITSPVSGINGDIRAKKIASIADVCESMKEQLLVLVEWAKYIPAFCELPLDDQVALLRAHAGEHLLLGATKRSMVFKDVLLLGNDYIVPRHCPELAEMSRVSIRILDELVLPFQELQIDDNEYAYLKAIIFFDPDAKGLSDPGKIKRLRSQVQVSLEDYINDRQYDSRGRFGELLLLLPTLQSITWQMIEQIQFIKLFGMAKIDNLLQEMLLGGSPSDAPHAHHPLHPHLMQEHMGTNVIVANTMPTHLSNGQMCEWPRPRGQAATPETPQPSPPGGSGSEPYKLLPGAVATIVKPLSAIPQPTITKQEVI
# Photoreceptor-specific nuclear receptor, sequence (Q9Y5X4 whole entry, the tested form may be a part): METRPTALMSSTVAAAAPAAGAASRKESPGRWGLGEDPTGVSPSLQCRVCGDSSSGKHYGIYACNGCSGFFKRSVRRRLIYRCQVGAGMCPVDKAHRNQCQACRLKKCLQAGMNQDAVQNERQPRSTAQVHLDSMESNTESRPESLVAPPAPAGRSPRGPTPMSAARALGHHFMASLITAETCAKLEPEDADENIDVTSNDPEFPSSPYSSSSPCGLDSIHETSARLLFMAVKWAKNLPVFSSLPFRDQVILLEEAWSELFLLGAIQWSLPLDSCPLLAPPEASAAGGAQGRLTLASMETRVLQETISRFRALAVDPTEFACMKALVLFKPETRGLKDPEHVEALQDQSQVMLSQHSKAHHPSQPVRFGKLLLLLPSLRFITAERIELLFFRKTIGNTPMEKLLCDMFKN
# Tyrosine-protein phosphatase non-receptor type 11, sequence (Q06124 whole entry): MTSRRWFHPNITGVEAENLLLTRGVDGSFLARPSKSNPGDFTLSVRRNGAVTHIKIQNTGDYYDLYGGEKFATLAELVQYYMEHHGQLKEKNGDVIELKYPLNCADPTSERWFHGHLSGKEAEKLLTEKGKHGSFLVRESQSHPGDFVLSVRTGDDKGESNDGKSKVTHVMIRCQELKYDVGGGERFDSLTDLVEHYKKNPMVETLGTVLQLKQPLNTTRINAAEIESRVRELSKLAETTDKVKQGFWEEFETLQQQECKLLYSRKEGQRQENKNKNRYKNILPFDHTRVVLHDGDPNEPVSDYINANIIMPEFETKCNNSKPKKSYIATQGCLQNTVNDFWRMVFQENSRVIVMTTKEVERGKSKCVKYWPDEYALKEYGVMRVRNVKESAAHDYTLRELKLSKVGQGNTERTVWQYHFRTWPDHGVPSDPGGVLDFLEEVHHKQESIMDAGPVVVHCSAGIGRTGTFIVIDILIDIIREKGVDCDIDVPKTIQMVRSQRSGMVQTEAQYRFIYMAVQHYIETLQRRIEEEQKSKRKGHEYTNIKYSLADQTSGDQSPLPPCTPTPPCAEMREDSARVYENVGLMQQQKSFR
# Cytochrome P450 2C9, sequence (P11712 whole entry): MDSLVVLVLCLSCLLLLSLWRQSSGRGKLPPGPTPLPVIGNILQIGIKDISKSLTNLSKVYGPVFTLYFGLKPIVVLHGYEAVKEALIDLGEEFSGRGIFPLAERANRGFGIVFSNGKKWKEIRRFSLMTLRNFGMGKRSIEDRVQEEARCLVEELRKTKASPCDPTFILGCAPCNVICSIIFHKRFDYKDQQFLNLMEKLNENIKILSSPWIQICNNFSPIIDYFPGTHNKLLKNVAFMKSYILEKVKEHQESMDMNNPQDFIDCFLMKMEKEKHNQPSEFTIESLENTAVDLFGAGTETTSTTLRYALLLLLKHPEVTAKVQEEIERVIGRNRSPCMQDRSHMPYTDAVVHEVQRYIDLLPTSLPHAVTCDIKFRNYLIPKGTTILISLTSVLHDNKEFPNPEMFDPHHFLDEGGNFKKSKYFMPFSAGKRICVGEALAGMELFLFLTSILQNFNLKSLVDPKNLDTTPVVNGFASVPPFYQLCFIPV
# Intestinal-type alkaline phosphatase (Mus musculus, UniProt P24822), sequence (P24822 whole entry): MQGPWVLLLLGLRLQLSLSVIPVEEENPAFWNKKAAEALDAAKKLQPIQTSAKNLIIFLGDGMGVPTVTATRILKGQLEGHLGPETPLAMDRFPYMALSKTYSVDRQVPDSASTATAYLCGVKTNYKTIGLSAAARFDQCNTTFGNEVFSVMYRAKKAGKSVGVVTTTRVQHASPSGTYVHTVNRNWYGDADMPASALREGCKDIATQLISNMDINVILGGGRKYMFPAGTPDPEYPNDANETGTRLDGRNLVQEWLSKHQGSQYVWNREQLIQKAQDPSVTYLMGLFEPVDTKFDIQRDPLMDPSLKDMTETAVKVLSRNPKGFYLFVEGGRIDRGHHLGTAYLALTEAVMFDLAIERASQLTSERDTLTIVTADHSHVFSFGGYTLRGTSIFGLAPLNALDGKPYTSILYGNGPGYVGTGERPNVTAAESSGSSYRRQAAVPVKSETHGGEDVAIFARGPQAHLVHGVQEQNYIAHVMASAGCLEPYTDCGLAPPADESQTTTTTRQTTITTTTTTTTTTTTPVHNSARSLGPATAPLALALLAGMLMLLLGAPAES
# Dual specificity protein phosphatase 3, sequence (P51452 whole entry): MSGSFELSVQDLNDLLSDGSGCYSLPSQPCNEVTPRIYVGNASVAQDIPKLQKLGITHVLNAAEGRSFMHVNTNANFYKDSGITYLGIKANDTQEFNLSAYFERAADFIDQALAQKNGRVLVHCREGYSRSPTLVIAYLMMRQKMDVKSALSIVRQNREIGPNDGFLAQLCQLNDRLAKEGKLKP
# Tyrosine-protein phosphatase non-receptor type 5, sequence (P54829 whole entry): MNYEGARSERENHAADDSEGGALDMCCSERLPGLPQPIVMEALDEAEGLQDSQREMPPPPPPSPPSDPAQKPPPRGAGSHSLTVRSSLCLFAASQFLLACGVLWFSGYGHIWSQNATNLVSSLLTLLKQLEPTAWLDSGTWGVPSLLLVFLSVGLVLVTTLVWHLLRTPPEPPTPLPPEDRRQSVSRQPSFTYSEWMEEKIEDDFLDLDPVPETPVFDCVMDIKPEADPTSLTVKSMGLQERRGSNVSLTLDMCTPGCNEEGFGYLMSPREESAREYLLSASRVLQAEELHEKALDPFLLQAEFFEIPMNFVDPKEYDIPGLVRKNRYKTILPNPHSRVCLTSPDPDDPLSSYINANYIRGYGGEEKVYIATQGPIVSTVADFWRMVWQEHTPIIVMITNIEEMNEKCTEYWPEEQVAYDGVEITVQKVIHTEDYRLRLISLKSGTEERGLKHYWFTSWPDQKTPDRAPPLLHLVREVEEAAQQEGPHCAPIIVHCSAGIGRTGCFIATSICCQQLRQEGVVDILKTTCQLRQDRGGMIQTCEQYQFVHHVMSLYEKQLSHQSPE
structure (smiles),measurement,setting,value
CCc1ccccc1Nc1nn2c(=O)c3ccc(C(=O)NCc4ccccn4)cc3nc2s1,IC50,[1],10.4 µM (active)
same,IC50,[2],> 66.6 µM (inactive)
same,AC50,[3],0.343 µM (active)
same,IC50,[4],13.1 µM (inactive)
COc1ccc(-c2oc3ncnc(NCCCN(C)C)c3c2-c2ccc(OC)cc2)cc1,AC50,[5],12.9 µM (active)
same,AC50,[6],21.7 µM (active)
same,AC50,[7],3.48 µM (active)
CCOc1cc(/C=C2\CCC/C(=C\c3cc(Cl)c(O)c(OCC)c3)C2=O)cc(Cl)c1O,IC50,[8],6.46 µM (active)
same,EC50,[9],2.24 µM (active)
same,IC50,[10],> 100 µM (inactive)
same,AC50,Cytochrome P450 1A2,10 µM (inconclusive)
same,AC50,INS1,8.02 µM (active)
same,AC50,Cytochrome P450 2C9,inconclusive
same,IC50,[11],7.08 µM (active)
same,EC50,[12],2.23 µM (active)
same,IC50,[13],> 100 µM (inactive)
CC1=C(C(=O)OC(C)C)C(c2ccc(Cl)cc2)n2c(s/c(=C\c3ccc(OCC(=O)O)cc3)c2=O)=N1 (configuration not stated),IC50,[1],7.22 µM (active)
same,IC50,[2],> 66.6 µM (inactive)
same,IC50,[14],3.02 µM (active)
same,IC50,[15],3.24 µM (active)
same,IC50,[16],4.68 µM (active)
same,IC50,[17],14.7 µM (active)
